The values below come from article PMC6341082 (Translational Psychiatry, 2019).

Experiment [1] concerns Adnp deficiency in mice. Further details: method as in PMID 26782054. The settings on record: cited from earlier work.
In experiment [2] the test system is Adnp+/- mice. As to the kind of experiment: Object recognition test. The format is in vivo, mouse. Conditions: male Adnp+/+ mice (Supplemental Fig. S2A, B). Here is the method:
Experiments were performed as previously described[8],[30],[40]. Three–six-month-old male mice were used, and NAP-CB was administered once daily (0.5 µg/5 µl/mouse) for one month. The behavioral assays were then initiated together with a continuous drug application. For detailed description of the object recognition test and the social approach task, please see supplemental materials and methods. In the odor discrimination test, odors were presented on a suspended cotton swab to the test mouse placed into the clean cage with fresh shavings. Each mouse was tested during three consecutive 2-min periods for each odor, with 2-min intervals between presentations. The time that the mouse smelled the swab was recorded (beginning whenever the animal oriented its nostrils toward the cotton swab, within 2 cm or less)[8],[30]. […] Data are expressed as mean ± SEM.
Object recognition: The test included two consecutive days of habituation (5 min per day) and the experimental day which consisted of the three phases. […] The time spent sniffing/touching each object was measured. Mouse movement and exploratory behavior were tracked and recorded using the EthoVision XT video tracking system and software (Noldus Inc. Leesburg, VA). […]

Experiment [3] concerns Adnp+/- mice. As to the kind of experiment: Social approach task (social recognition and social memory). The format is in vivo, mouse. Here is the method: (§1) Experiments were performed as previously described[8],[30],[40]. Three–six-month-old male mice were used, and NAP-CB was administered once daily (0.5 µg/5 µl/mouse) for one month. The behavioral assays were then initiated together with a continuous drug application. For detailed description of the object recognition test and the social approach task, please see supplemental materials and methods. In the odor discrimination test, odors were presented on a suspended cotton swab to the test mouse placed into the clean cage with fresh shavings. Each mouse was tested during three consecutive 2-min periods for each odor, with 2-min intervals between presentations. The time that the mouse smelled the swab was recorded (beginning whenever the animal oriented its nostrils toward the cotton swab, within 2 cm or less)[8],[30]. The hanging wire test measuring the strength of the mouse paws by using the latency to fall off an inverted cage lid (placed 50 cm above the surface) onto a soft bedding (maximum time 90 sec), was performed as previously described[5],[40]. Data are expressed as mean ± SEM.
Social approach: A plexiglas box was divided into three adjacent chambers, each 20 cm (length) × 40.5 cm (width) × 22 cm (height), separated by two removable doors. Steel wire pencil cups (10.16 cm (diameter), 10.8 cm (height)), www.kitchen-plus.com, were used as both containment for the target mice and as inanimate objects (weights prevented the mice from overturning the cups). […] The next day, each subject mouse was tested in an experiment with three phases, each 10-min long (measured with a simple timer): I and II, the habituation phases (ensuring no bias), and III, the experimental phase. […] Mouse movement and exploratory behavior were tracked and recorded using the EthoVision XT video tracking system and software (Noldus Inc. Leesburg, VA). The discrimination capacity (social memory) was analyzed using the formula: D2 = (b-a)/(b+a), where ‘a’ designated the time of exploration of the familiar mouse and 'b' designated the time of exploration of the novel mouse.

Experiment [4] deals with Adnp+/- mice. Kind of experiment: Odor discrimination test. The experiment is classed as in vivo, mouse. Here is the method:
as §1, with “Three–six-month-old male mice were used, and NAP-CB was administered once daily (0.5 µg/5 µl/mouse) for one month.” left out

The test system of experiment [5] is Adnp+/- mice. As to the kind of experiment: Hanging wire test. Conditions: significant vs vehicle. The experiment is classed as in vivo, mouse. Here is the method: as §1, with “Three–six-month-old male mice were used, and NAP-CB was administered once daily (0.5 µg/5 µl/mouse) for one month.” left out
Experiment [6] relates to hippocampus of Adnp+/- mice. Kind of experiment: Diffusion tensor imaging (DTI) MRI of chronically treated brains. The format is in vivo, mouse. From the text: Seven–eight-month-old male mice underwent MRI on a 7.0 T/30 spectrometer (Bruker, Rheinstetten, Germany) using a volume coil for excitation and a rat quadrature coil for acquisition. The MRI protocol used here was the DTI.
DTI was obtained using a diffusion-weighted (DW) spin-echo echo-planar-imaging (EPI) pulse sequence with the following parameters: TR/TE = 4000/25 ms, Δ/δ = 10/4.5 ms, 4 EPI segments and 32 non-collinear gradient directions with a single b value (1000 sec/mm^2) and two images with b value of 0 sec/mm^2 (referred to as b0). Geometrical parameters were: 24 slices of 0.5 mm thickness, matrix size of 128 × 128 and FOV of […]). The imaging protocol was repeated three times for signal averaging and to compensate for acquisition where significant head motion was observed. Image analysis included DTI analysis of the DW-EPI images to produce the mean diffusivity (MD) and fractional anisotropy (FA) indexed maps following a two-way ANOVA with Tukey post-hoc test.

In experiment [7] the test system is Slc17a7 gene encoding VGLUT1. As to the kind of experiment: Gene expression analysis (quantitative RT-PCR). The format is in vivo, mouse. Here is the method: Hippocampal and cerebral cortical RNA of mouse that were 7.5-month-old were extracted using TRI Reagent® (T9424, Sigma-Aldrich, MO, USA). A volume of 1 μg RNA/sample was then subjected to reverse transcription (RT) using qScript cDNA Synthesis Kit (Quanta Biosciences, Gaithersburg, MD, USA). Further Real-time PCR analysis was performed using PerfeCta^TM SYBR® Green FastMix^TM, Low ROX^TM (Cat. No. 95074–012, Quanta Biosciences, Gaithersburg, MD, USA) and the QuantStudio 12 K Flex Real-Time PCR System (Thermo Fisher Scientific, Waltham, MA, USA). RNA expression levels were determined using specific mouse primers: Slc17a7 gene encoding VGLUT1, sense 5′-[…]-3′, anti-sense 5′-[…]-3′. Hypoxanthine-guanine phosphoribosyltransferase (Hprt) was selected as a stable reference gene with appropriate primers for mouse, sense 5′-[…]-3′, anti-sense 5′-[…]-3′. Results are presented as 2^-ΔCT[42].

For experiment [8], the system named is VGLUT1. As to the kind of experiment: Immunohistochemistry. The format is in vivo, mouse. The settings on record: male Adnp+/- mice. The protocol: Immunohistochemistry was carried out as previously described. Briefly, paraffin sections were deparaffinized, rehydrated in graded alcohols, and antigen retrieval was performed with citrate buffer pH 6. Endogenous peroxidase was blocked with 3% H2O2 in methanol and was followed by incubation in the appropriate blocking buffer for 30 min. Sections were incubated overnight at 4 °C with the primary antibodies against VGLUT1 (Santa Cruz Biotechnology, sc-13320). The secondary antibody used was Rabbit Anti-Goat IgG (EMD Millipore, AP106B). Immunoreactions were visualized with the aim of Avidin-Peroxidase (Sigma- Aldrich Chemical), and 3,3′-Diaminobenzidine (DAB, brown color, Sigma-Aldrich Chemical) was utilized as chromogen. Sections were then counterstained with hematoxylin (light blue color).
Sections were further examined under optical microscope Zeiss Axioplan-2 with the aid of a CCD camera (Nikon DS-5M) for observations of the slides. In average, 25 optical fields were examined from each group under a magnification of ×40. Measurements were performed with Image J software (1.43 u) in the areas of the hippocampus and the cortex. The results were expressed as area/mm^2 (as previously described[14]), representing the area of DAB positive signal in each photo divided by the total area of the same photo. An additional parameter measured was the Integrated Density, calculating and displaying […]: the product of Area and Mean Gray Value.

The subject of experiment [9] is patients. The settings on record: cited from earlier work. An excerpt: Together, these studies attest to preclinical efficacy, holding a promise for clinical effectiveness. […] Nevertheless, in a study performed in severely affected individuals suffering from progressive supranuclear palsy (PSP), belonging to the family of rapidly progressing frontotemporal neurodegener ...

For the substance SKIP, in [1], the impaired axonal transport entry was “ameliorated”.
On to NAPVSIPQ, for which, in [2], the “object recognition, relative discrimination, short and long retention choice phases, NAP- vs CB-treated” value is recorded as “no significant differences”. Besides, in [3] (NAP-treated Adnp+/- male mice, p < 0.001 vs. cup), the “social recognition, sniffing time mouse vs cup” value was “significant differences between sniffing time of the cup (c) and mouse (M)”. The “social memory (D2, novel vs familiar mouse)” value in experiment [3] (female Adnp+/- mice, n = 3-4 per group, p < 0.001 vs vehicle (Supplemental Fig. S2D)) is reported as “improved social memory”. Besides, the “social recognition, preference mouse vs object” value in experiment [3] (females (Supplemental Fig. S2C), n = 3-4 per group) was “significant preference to mice rather than objects”. The “total odor sniffing time (AUC)” value in [4] (female Adnp+/- mice, NAP vs CB vehicle, p < 0.05) is “significantly reduced”. In addition, the “odor discrimination ability (novel vs. familiar odor), differences between experimental groups” value is reported as “no significant differences” in [4] (females (Supplemental Fig. S2E)) and “no significant differences were observed between experimental groups” in [4] (males). The “total time spent with the different odors (AUC)” value in experiment [4] (male Adnp+/- mice, NAP vs CB vehicle, p < 0.05) is given as “significantly increased”. For the same substance, the “hanging wire test, latency to fall” value in experiment [5] (female Adnp+/- mice (Supplemental Fig. S2F)) is on record as “ameliorating this behavior”; in [5] (male Adnp+/- mice, maximum time 90 sec) it was “amelioration”. Also, the “hippocampal mean diffusivity (MD), NAP- vs CB-treated” value in [6] (male Adnp+/+ mice (Supplemental Fig. S3A)) is “no significant differences in MD”. Also, in experiment [6] (male Adnp+/+ mice (Supplemental Fig. S3B)), the “hippocampal fractional anisotropy (FA)” value was “not affected”. Besides, in experiment [6] (male Adnp+/- mice, 7-8 months old, -1.84 mm from Bregma, n = 4-6 per group), the “hippocampal mean diffusivity (MD), effect on increase in Adnp+/-” value is recorded as “although insignificant, was slightly reduced”. Further, in experiment [7] (female Adnp+/- mice, n = 3-4 per group (Supplemental Fig. S4B)), the “cerebral cortex VGLUT1 expression (reduced in Adnp+/-)” value is given as “no effect”. In addition, the “hippocampal VGLUT1 gene expression” value in experiment [7] (females, n = 3-4 per group (Supplemental Fig. S4A)) is “not affected”. Besides, the “VGLUT1 transcript, cerebral cortex” value in experiment [7] (male Adnp+/- mice, 2^-ΔCT normalized to Hprt, n = 4 per group) is given as “small, albeit significant decrease”. Further, the “Slc17a7 (VGLUT1) gene expression, hippocampus (decrease in Adnp+/-)” value in experiment [7] (male Adnp+/- mice, 7.5-month-old, 2^-ΔCT normalized to Hprt, n = 4 per group) was “completely reversed”. Moreover, in experiment [8], the “VGLUT1 protein, intensity (Integrated Density), cortex” value is “trend of improvement”. Also, the “VGLUT1 protein, area counting (area/mm^2), hippocampus” value in experiment [8] (five animals per group, technical replicates, p < 0.001 vs CB) was “full protection”. In addition, the “VGLUT1 protein, area counting (area/mm^2), cerebral cortex” value in experiment [8] (five animals per group, technical replicates, p < 0.05 vs CB) is listed as “full protection”. The “VGLUT1 protein, intensity (Integrated Density), hippocampus” value in experiment [8] (p < 0.001 vs CB) is given as “significant”. The cognitive scores result in experiment [9] (amnestic mild cognitive impairment patients) is “increase in cognitive scores”. In addition, in [9] (schizophrenia patients), the “functional activities of daily living” value is given as “protection of functional activities of daily living”. For the same substance, in experiment [9] (severely affected individuals suffering from PSP), the “efficacy in progressive supranuclear palsy (PSP)” value is listed as “did not show efficacy”.
